# Reference: patent US20020049157A1, “Use of proteasome inhibitors for treating cancer, inflammation, autoimmune disease, graft rejection and septic shock” (priority 1998, published 2002)
# Where two headings read alike, the source gives them in different places. Peptide text beside a SMILES is read from it. * marks the point of attachment. Cbz = O=C(OCc1ccccc1)*; CH2F = FC*
# How the values were obtained:
# Jurkat cells [1] = assay: Respiration (O2 consumption) of Jurkat cells, oxygen electrode; type: cell-based; settings: LAC for 4 h; 100 μM Cytochrome C
# Description: The function of Complex I of digitonin (Dig)-permeated Jurkat cells was blocked by rotenone (Rot), and the respiration was resumed by adding succinate (Suc), which provides electrons to Complex II directly and thus bypasses Complex I. The maximal respiration was achieved by adding CCCP (carbonyl cyanide m-chlorophenylhydrazone), which uncouples the oxidation and phosphorylation. The respiration could be blocked by antimycin A (Ant), which inhibits […]. Curves 1 and 6 represent positive controls of rat kidney mitochondria. Curves 2 and 5 represent normals untreated Jurkat cells. Curves 3 and 4 represent Jurkat cells treated with lactacystin (6 μM) for 2 h and 4 h, respectively.
# Complex III in the respiration chain was blocked at Complex III antimycin (Ant), and the electron flow was resumed by addiind ascorbate (Asc) and TMPD (tetramethyl-p-phenyl-enediamine).
# The assay system is identical to that described in FIG. 16. Jurkat cells were treated with LAC for 4 h (curve 3). The decoupling reagent used in this experiment to achieve maximal respiration is FCCP (carbonylcyanide-p-trifluoromethoxyphenylhydrazone).
# The Jurkat Cells (JC) (30×10^6/ml) or rat kidney proximal tubules mitochondria (RKM) (0.5 mg of protein/ml) were incubated in 1 ml measuring chamber at 37° C. in a respiration buffer containing 200 mM sucrose, 5 mM MgCl2, 5 mM KH2PO4, and 30 mM HEPES-Tris (pH 7.5). During respiration experiments following substrates and inhibitors were used: 0.005% Digitonine (Dig); 10 mM Succinate (Suc); 1 mM Ascorbate (Asc); 0.4 mM tetramethyl-p- phenylenediamine (TMPD); 1 μM CCCP, 1 μM FCCP; 0.1 μM Rotenone (Rot); 50 nM Antimycin A (Anti); 1 mM KCN; 100 μM Cytochrome C (Cyt C). The respiration rate of the Jurkat Cells and mitochondria was measured polarographically with a Clarke oxygen electrode (Yellow Springs Instruments, Yellow Springs, Ohio, U.S.A.) using 1 ml thermojacketed chamber. Oxygen concentration was calibrated with air-saturated buffer using Hypoxanthine—Xanthine Oxidase—Catalase system (“chemical zero”). Oxygen consumption was continuously recorded using a “MacLab/8” (Analog Digital Instruments, U.S.A.) connected to a Macintosh SE computer and the MacLab Chart v.3.3.4 software. Rates of oxygen consumption are expressed as ng-atoms of oxygen/min.
# Jurkat and Namalwa cells = assay: Apoptosis induction in Jurkat and Namalwa cells; type: cell-based
# [2] = test system: BALB/c mouse spleen cells; assay: Anti-CD3-stimulated T cell proliferation (3H-thymidine); type: cell-based; settings: anti-CD3 50 ng/ml; pulsed 48 h, harvested 64 h
# Protocol: The cells were pulsed with ^3H-thymidine at 48 h and harvested at 64 h after the culture.
# islet allograft = assay: Mouse islet allograft in streptozocin-induced diabetes; type: in vivo; settings: 1 mg/kg/day i.p. for 16 days, then 0.5 mg/kg twice a week until day 60
# Protocol: C57BL/6 mice were treated with 250 mg/kg streptozocin and used as islet graft recipients when their blood glucose reached […] from BALB/c mice were isolated after collagenase digestion followed by Ficoll gradient separation. The islets were cultured overnight, and transplanted into the peritoneal cavity of the diabetic C57BL/6 recipients (500-600 islets/recipient). […] The blood glucose of the mice was measured daily and the means+SDs are shown. […] The mice were sacrificed on day 60, or when their blood glucose reached […].
# [3] = test system: Streptococcus cell wall-induced polyarthritis; settings: in vivo, cited from earlier work
# heart allograft = type: in vivo, mouse
# Protocol: BALB/c mice (H-2^d) were used as heart donors and C57BL/6 mice (H-2^b) as recipients. […] Group 2 was given 0.65 mg/kg/day; group 3 was given 1.0 mg/kg/day for 4 days, and the dose was then reduced to 0.5 mg/kg/day for 12 days. The graft survival days, mean survival time (MST) and the p value (unpaired Student's test) compared with the control group was presented.
# The applicant then used DPBA in treating allograft rejection in a mouse model. BALB/c (H-2^d) mice were used as donors and C57BL/6 (H-2^b) was used as recipients. Heterotropic heart transplantation was performed as described in our previous publication (Chen et al., 1996, supra). […] With this regimen, the MST is more than 22.8+9.8 days and has a tendency of being better than the first group.
# Proteasome inhibitors when added at the late G1 phase can suppress proliferation and even induce apoptosis of the activated T cells. […] This possibility was tested in mouse heart transplantation model. The recipients were given no immunosuppressants for 72 h after the transplantation to allow the rejection response to proceed. […] This new drug will be especially useful in patients who are resistant to commonly used immunosuppressants such as CyA, azathioprine, and glucocorticoids.
# Jurkat cells [4] = assay: DNA fragmentation (DNA laddering) in Jurkat cells; type: cell-based; settings: LAC 6 μM; caspase inhibitor 0.4 μM to 33.3 μM; 6 h
# Protocol: Tonsillar T cells (A, B, and D) and Jurkat cells (C and E) were treated with LAC (10 μM for T cells and 6 μM for Jurkat cells). LAC was added at the beginning of the culture or 40 h after T cell activation as indicated. The cells were harvested at the time points as shown. They were evaluated for their viability with trypan blue exclusion (A, B, and C), and for their mode of cell death according to DNA fragmentation (D and E).
# Jurkat cells were treated with LAC (6 μM) in the absence or presence of different concentrations of zVAD.fms (0.4 μM to 33.3 μM) for 6 h. The cells were harvested and their DNA was analyzed by a DNA fragmentation assay according to DNA laddering.
# We next employed DNA laddering to study the mode of cell death caused by LAC, and the result of this experiment also reflected the degree of cell death after different treatments. […] After 24 h of LAC treatment, the ladders became less discrete, and this probably reflected further DNA breakdown.
# The assay was performed according to a protocol described by Liu et al (Liu et al., 1997, Cell. 89:175) with some modifications. Briefly, 2-6 million cells were re-suspended in 50 μl PBS followed by 300 μl lysis buffer (100 mM Tris-HCl, pH 8.0, 5 mM EDTA, 0.2 M NaCl. 0.2% w/v SDS, and 0.2 mg/ml proteinase K). After overnight incubation at 37° C., 350 μl of 3M NaCl was added to the mixture and cell debris was removed by centrifugation at 13000 g for 20 min at room temperature. DNA in the supernatant was precipitated with an equal volume of 100% ethanol. The pellet was washed with cold 70% ethanol and then dissolved in 20 μl of TE containing 0.2 mg/ml RNase A. After incubation at 37° C. for 2 h, the DNA was resolved on 2% agarose gel and visualized with ethidium bromide staining.
# proteasome = settings: for repression of chymotrypsin-like activity in the PBMC: RAPA at 10 nM
# Protocol: Human PBMC were cultured in the absence or presence of 2 μg/ml PHA or 10 nM RAPA for 16 h-70 h as indicated. The cells were then harvested, and the chymotrypsin-like activity of whole cells lysates was assayed in the absence or presence of 20 μM proteasome inhibitor LAC. The data are presented as arbitrary units of fluorescence intensity per 20 μg lysate protein. The experiments were repeated three times and a representative one is shown. Samples are in duplicate and the mean±SD is shown. (A) Total chymotrypsin-like activity in the lysate of PBMC. (B) Lactacystin-inhibitable chymotrypsin-like activity in the lysate of 70 h PBMC. Nine micrograms of 20S proteasome were used as positive controls for the inhibitory effect of LAC at 10 μM and 20 μM. LAC was always added to the lysates during the proteinase assay 15 min before the addition of the substrate. The solid bars represent the activity in the presence of LAC. The net proteasome activities are calculated as the total activity minus the remaining activity after the LAC addition.
# PBMC lysates were assayed for their proteinase activity at pH 8.2 which favors the proteasome activity, using a chymotrypsin substrate as a representative parameter.
# PBMC were cultured with or without PHA (2 μg/ml) and RAPA (10 nM). After 16 h-70 h, the cells were harvested and sonicated in 300 μl PBS on ice for 40 sec. Twenty micrograms of protein per sample from the cleared lysates were supplemented to 100 μl with 0.1 M Tris buffer (pH 8.2). A proteasome-specific inhibitor lactacystin (Omura et al., 1991, supra; Fentenay et al., 1995, supra) was added at a final concentration of 10 nM in some samples as indicated. The samples were incubated on ice for 15 min, and fluorogenic chymotrypsin substrate sLLVY-MCA was then added at a final concentration of 10 nM. The 20S proteasome, which was prepared as previously described (Friguet et al, 1994, J. Biol. Chem. 269:21639), was used as a positive control in place of cell lysates. The samples were incubated at 37° C. for 15 min and the reaction was terminated by adding 4 μl 2.5 M HCl. The samples were then diluted to 2 ml with 0.1 M Tris pH8.2, and measured for their fluorescent intensity by a PTI fluorometer (Photo Technology International, South Brunswick, N.J.). The excitation wavelength was 380 nm, and the emission wavelength 440 mn.
compound,measurement,setting,value
cytochrome c,respiration of LAC-treated cells after adding exogenous cytochrome c,Jurkat cells [1],the respiration resumed to a rate similar to that of untreated Jurkat cells and mitochondria
CN[C@@H]1C[C@H]2O[C@@](C)([C@@H]1OC)n1c3ccccc3c3c4c(c5c6ccccc6n2c5c31)C(=O)NC4 [staurosporine],induction of apoptosis,Jurkat and Namalwa cells,could equally induce apoptosis
"CC(C)C[C@H](NC(=O)[C@H](Cc1ccccc1)NC(=O)c1cnccn1)B(O)O [DPBA, Pyz-Phe-boroLeu]",IC50,[2],~18 nM
same,duration of normal function of allogeneic islet graft,islet allograft,more than 60 days
same,glucose elevation consequent to islet rejection,islet allograft,inhibits the glucose elevation consequent to islet rejection
same,toxicity,[3]; rat,without apparent toxicity
same,inhibition of Streptococcus cell wall-induced polyarthritis,[3]; rats,effectively inhibit
same,MST (mean survival time of heart allograft),heart allograft; 0.65 mg/kg/day i.p. for 16 days,more than 26.2+13 days
same,MST (mean survival time of heart allograft),"heart allograft; 1 mg/kg/day i.p. day 1-4, then 0.5 mg/kg/day i.p. day 5-16",more than 22.8+9.8 days
same,MST (ongoing rejection),heart allograft; 1 mg/kg/day i.p. for 4 days starting on day 3,more than 13.2+1.78 days
same,appearance of the mice during or after the drug administration,"heart allograft; mouse, in vivo, ip",appear healthy
same,graft survival (ongoing rejection),heart allograft; short-term treatment between day 3 and 6,more than 13 days
"COC(=O)C[C@H](NC(=O)[C@H](C)NC(=O)[C@@H](NC(=O)OCc1ccccc1)C(C)C)C(=O)CF [zVAD.fms, zVAD.fmk] (Cbz-Val-Ala-Asp(OMe)-CH2F)",effect on LAC-induced DNA fragmentation,Jurkat cells [4],inhibitory effect on DNA fragmentation that is concentration responsive
"CO[C@H]1C[C@@H]2CC[C@@H](C)[C@@](O)(O2)C(=O)C(=O)N2CCCC[C@H]2C(=O)O[C@H]([C@H](C)C[C@@H]2CC[C@@H](O)[C@H](OC)C2)CC(=O)[C@H](C)/C=C(\C)[C@@H](O)[C@@H](OC)C(=O)[C@H](C)C[C@H](C)/C=C/C=C/C=C/1C [RAPA, Rapamycin]",net proteasome activity,"proteasome; PHA plus RAPA-treated cells, 70 h, total minus activity remaining after LAC",113.2×10^3 units/20 μg protein
same,inhibition of the augmented proteasome activity in the PHA-treated PBMC,"proteasome; RAPA 10 nM, 70 h",44.7%
same,inhibition of the total proteasome activity in the PHA-treated PBMC,"proteasome; RAPA 10 nM, 70 h",33.6%
same,repression of chymotrypsin-like activity in the PBMC,proteasome; 40 h after PHA stimulation,23.1%
same,repression of chymotrypsin-like activity in the PBMC,proteasome; 70 h after PHA stimulation,41.1%
